Data as given in patent publication US8119614B2, “Substitution derivatives of N6-benzyladenosine, methods of their preparation, their use for preparation of drugs, cosmetic preparations and growth regulators, pharmaceutical preparations, cosmetic preparations and growth regulators containing these compounds” (Ustav Experimentalni Botaniky Akademie Ved Ceske Republiky, priority 2002, dated 2012).

What was measured:
Type in all cases: cell-based
Human lymphocytes = assay: Immunosuppressive activity: concanavalin A induced lymphocyte proliferation, [^3H]-TdR incorporation; details: 72 hours, read-out: Human lymphocytes ED50
Method: Human heparinized peripheral blood was obtained from healthy volunteers by cubital vein punction. The blood was diluted in PBS (1:3) and mononuclear cells were separated by centrifugation in Ficoll-Hypaque density gradient (Pharmacia, 1.077 g/ml) at 2200 rpm for 30 minutes. Following centrifugation, lymphocytes were washed in PBS and resuspended in cell culture medium (RMPI 1640, 2 mM glutamine, 100 U/ml penicillin, 100 μg/ml streptomycin, 10% fetal calf serum and sodium bicarbonate).
The cells were diluted at target density of 1,100,000 cells/ml were added by pipette (180 μl) into 96/well microtiter plates. Four-fold dilutions of the intended test concentration were added at time zero in 20 μl aliquots to the microtiter plate wells. Usually, test compound was evaluated at six 4-fold dilutions. In routine testing, the highest well concentration was 266.7 μM. All drug concentrations were examined in duplicates. All wells with exception of unstimulated controls were activated with 50 μl of concanavalin A (25 μg/ml). Incubations of cells with test compounds lasted for 72 hours at 37° C., in 5% CO2 atmosphere and 100% humidity. At the end of incubation period, the cells were assayed by using the [^3H]-TdR:
Cell cultures were incubated with 0.5 μCi (20 μl of stock solution 500 μCi/ml) per well for 6 hours at 37° C. and 5% CO2. The automated cell harvester was used to lyse cells in water and adsorb the DNA onto glass-fiber filters in the format of microtiter plate. The DNA incorporated [^3H]-TdR was retained on the filter while unincorporated material passes through. The filters were dried at room temperature overnight, sealed into a sample bag with 10-12 ml of scintillant. The amount of [^3H]-TdR present in each filter (in cpm) was determined by scintillation counting in a Betaplate liquid scintillation counter. The effective dose of immunosuppressant (ED) was calculated using the following equation: ED=(CCPMdrug exposed well/mean CCPMcontrol wells)×100%. The ED50 value, the drug concentration inhibiting proliferation of 50% of lymphocytes, was calculated from the obtained dose response curves.

[1] = system: tobacco callus Nicotiana tabacum L. cv. Wisconsin 38; assay: Growth of cytokinin-dependent tobacco callus; details: for Activity (%) [10^−5 mol · l^−1 BAP = 100%]: callus growth, at concentration with highest activity; for Concentration with highest activity: fresh callus weight after four weeks
[2] = system: human diploid fibroblasts (HCA cells); assay: Inhibition of senescence of mammal cells: β-galactosidase staining of senescent cells; details: for Senescent cells (%) HCA25: passage 25; for Senescent cells (%) HCA45: passage 45; for Senescent cells (%) HCA80: passage 80
Method: In this example, human diploid fibroblasts (HCA cells with different levels of passage: passage 25—labelling HCA25; passage 45—labelling HCA45; passage 80—labelling HCA80) were used for studying β-galactosidase activity. Medium used for cells cultivation was removed, cells were washed twice with PBS and fixed in 2-3 ml of fixation agent consisting of 2% of formaldehyde and 0.2% of flutaraldehyde in PBS. Cells were incubated at room temperature for 5 min and subsequently washed twice with PBS. Cells were then incubated at 37° C. (without CO2) for 1 to 16 hours in 2-3 ml of solution comprising potassium ferricyanide (5 mM), potassium ferrocyanide (5 mM), MgCl2 (2 mM), X-gal (5-bromo-4-chloro-3-indolyl-β-D-galactopyranoside) (1 mg/ml) in citrate/phosphate buffer, pH 6.0. […] In this experiment only senescent cells were labelled due to the effect of β-galactosidase on the substrate.

[3] = system: human malignant melanoma cells G361; assay: In vitro cytotoxic activity, Calcein AM assay, G-361; details: 72 hours, read-out: IC 50 G-361
How it was run: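 Cells seeded at 10^4 per well, pre-incubated 24 h, then exposed to six 4-fold dilutions (top well concentration usually 166.7 μM, duplicates) for 72 h at 37 °C. Viability read by Calcein AM fluorescence after 1 h; GI50 taken from dose-response curves relative to control wells.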

SMILES	EC50 (Human lymphocytes)	Activity (%) [10^−5 mol · l^−1 BAP = 100%] [1]	Concentration with highest activity [1]	Senescent cells (%) HCA25 [2]	Senescent cells (%) HCA45 [2]	Senescent cells (%) HCA80 [2]	IC50 [3]
Cc1cccc(CNc2ncnc3c2ncn3[C@@H]2O[C@H](CO)[C@@H](O)[C@H]2O)c1 [3-methylbenzylamino, 6-(3-methylbenzylamino)purine riboside]	6.5 µM	90 ± 2%	10^−6 mol · l^−1				
OC[C@H]1O[C@@H](n2cnc3c(NCc4cccc(Cl)c4)ncnc32)[C@H](O)[C@@H]1O [3-chlorobenzylamino, 6-(3-chlorobenzylamino)purine riboside]	2.5 µM	96 ± 5%	10^−5 mol · l^−1				
OC[C@H]1O[C@@H](n2cnc3c(NCc4ccccc4F)ncnc32)[C@H](O)[C@@H]1O [2-fluorobenzylamino, 6-(2-fluorobenzylamino)purine riboside]	5.6 µM	100 ± 9%	10^−6 mol · l^−1	4%	4%	15%	
OC[C@H]1O[C@@H](n2cnc3c(NCc4cccc(Br)c4)ncnc32)[C@H](O)[C@@H]1O [3-bromobenzylamino, 6-(3-bromobenzylamino)purine riboside]		82 ± 11%	10^−6 mol · l^−1				
COc1cccc(CNc2ncnc3c2ncn3[C@@H]2O[C@H](CO)[C@@H](O)[C@H]2O)c1 [3-methoxybenzylamino, 6-(3-methoxybenzylamino)purine riboside]		92 ± 1%	10^−6 mol · l^−1	5%	6%	12%	> 167 µM
Cc1ccccc1CNc1ncnc2c1ncn2[C@@H]1O[C@H](CO)[C@@H](O)[C@H]1O [2-methylbenzylamino, 6-(2-methylbenzylamino)purine riboside]	5.8 µM	98 ± 4%	10^−6 mol · l^−1				
OC[C@H]1O[C@@H](n2cnc3c(NCc4ccccc4Cl)ncnc32)[C@H](O)[C@@H]1O [2-chlorobenzylamino, 6-(2-chlorobenzylamino)purine riboside]	8.4 µM	93 ± 4%	10^−6 mol · l^−1				
OC[C@H]1O[C@@H](n2cnc3c(NCc4ccc(F)cc4)ncnc32)[C@H](O)[C@@H]1O [4-fluorobenzylamino, 6-(4-fluorobenzylamino)purine riboside]	9.4 µM	100 ± 6%	10^−6 mol · l^−1				
COc1ccccc1CNc1ncnc2c1ncn2[C@@H]1O[C@H](CO)[C@@H](O)[C@H]1O [2-methoxybenzylamino, 6-(2-methoxybenzylamino)purine riboside]		108 ± 1%	10^−5 mol · l^−1	4%	4%	16%	> 167 µM
COc1cccc(CNc2ncnc3c2ncn3[C@@H]2O[C@H](CO)[C@@H](O)[C@H]2O)c1O [2-hydroxy-3-methoxybenzylamino, 6-(2-hydroxy-3-methoxybenzylamino)purine riboside]	1.4 µM						148 µM
OC[C@H]1O[C@@H](n2cnc3c(NCc4cccc(F)c4)ncnc32)[C@H](O)[C@@H]1O [3-fluorobenzylamino, 6-(3-fluorobenzylamino)purine riboside]	7.1 µM	91 ± 6%	10^−5 mol · l^−1	3%	5%	13%	15.7 µM
OC[C@H]1O[C@@H](n2cnc3c(NCc4ccc(Cl)cc4)ncnc32)[C@H](O)[C@@H]1O [4-chlorobenzylamino, 6-(4-chlorobenzylamino)purine riboside]	3.9 µM	46 ± 14%	10^−6 mol · l^−1				
